According to patent US20090075925A1, “Methods and Compositions Related to APOBEC-1 Expression” (priority 2006, published 2009):
Read-outs that look alike come from different tables or passages of the source. One block for each compound: values may come before it.

What was measured:
[1] = system: apoB mRNA editing; conditions: for apoB mRNA editing, Mean ± SEM: 6 hours
Description: Protein phosphatase inhibitor studies. […] The compounds' effects on apoB mRNA editing were evaluated by RT-PCR and poisoned-primer extension analysis (Sowden et al. Rna 2:274-88 (1996)). The effect of 470 nM cantharidin on ACF subcellular distribution was investigated by treating primary hepatocyte cultures for 6 hours followed by nuclear and cytoplasmic extract preparation.
It was reasoned that if phosphorylation of ACF regulated editing activity, treatment of rat primary hepatocytes with phosphatase inhibitors might stimulate apoB mRNA editing activity. […] The experiments (n=4-6) were done over a number of months and therefore represent primary hepatocytes from several rats.
Editing activity was quantified from primary hepatocytes incubated with 10-100-times the EC50 of the various […] (Calbiochem).

[2] = system: ACF; test: ACF phosphorylation in 32P-labeled rat primary hepatocytes (ACF immunoprecipitation, autoradiography); format: cell-based
Description: In vivo phosphorylation of ACF. In vivo ^32P labeling was performed by intraperitoneal injection of rats with 12.5 mCi of orthophosphoric acid (10 mCi/ml ^32PO4; NEN, Boston, Mass.) buffered with 50 mM HEPES, pH 7.0 and 150 mM NaCl. After 4 hours, rats were sacrificed and hepatic cytoplasmic and nuclear extracts prepared. Primary hepatocyte cultures in 60 mm dishes were incubated in phosphate-free Minimum Essential Eagle Media (Sigma) containing 0.1 nM porcine insulin for 6 hours and subsequently in fresh media containing 10 nM insulin (equivalent to that seen in post-prandial serum) or 0.45% to 0.9% ethanol (AAPER Alcohol and Chemical Co., Shelbyville, Ky.) (Van Mater et al. (1998), Yang et al. (2000)) plus 2.0 mCi orthophosphoric acid. Cultures were labeled for 4 hours prior to extract preparation.
To evaluate the effect of phosphatase inhibition on ACF phosphorylation, cultures were pre-incubated for 2 hours with 470 nM cantharadin in phosphate-free Waymouth's media and subsequently supplemented with 0.5 mCi ^32pO4 and incubated for an additional 4 hours. Cultures were harvested and subcellular extracts prepared.
Immunological techniques. […] For immunoprecipitation analyses all radiolabeled extracts were adjusted to 5 mM MgCl2 and digested with 100 units of DNase I (Promega), RNase T1 (Roche, Ind.), and RNase A (Sigma) for 1 hour on ice to remove radiolabeled nucleic acid. Where applicable, extracts were incubated overnight with ACF CT antibody at 4° C. and subsequently reacted with Protein A-agarose (Oncogene Research Products, Boston, Mass.) pre-washed with 1×TBS/10 mM NaF. The immuno-absorbed material was washed 3 times with 1×TBS/10 mM NaF, 3 times with 1×TBS/1 M NaCl (Yang et al. (1997)) and lastly 3 times with 1×TBS. Immuno-absorbed material to be treated with alkaline phosphatase was washed with 50 mM Tris, pH 8.4, 1 mM MgCl2, 0.1 mM ZnCl2, 25% glycerol and then incubated with 5 U CIAP for 1 hour at 30° C. and then washed 6 times with 1×TBS. ACF-antibody complexes were eluted with 3 M sodium thiocyanate, acetone precipitated and analyzed by 10.5% SDS-PAGE followed by autoradiography and/or western blotting with ACF NT antibody. For ACF immunoprecipitation from gradient fractions an equal volume of pooled gradient fractions from sedimentation zones of interest were reacted with sub-saturating amounts of ACF CT antibody to ensure that the recovery of phospho-ACF was not simply a reflection of ACF abundance in each zone.
To evaluate this, cytoplasmic and nuclear extracts from radiolabeled primary hepatocyte cultures were sedimented through 10%-50% glycerol gradients. […] The ACF immunoprecipitates were resolved by SDS-PAGE, transferred to nitrocellulose, autoradiographed and subjected to phosphorimager scanning to detect and quantify radiolabeled proteins prior to immunoblotting with the ACF NT antibody.

[3] = system: apoB mRNA editing; test: apoB mRNA editing in McArdle cells (ethanol, ACF wild type, mutants and isoforms); format: cell-based, rat; conditions: wild type McArdle cells, ethanol 4 hours
Description: McArdle RH7777 cells (ATCC Manassas, Va.) stably expressing HA epitope-tagged APOBEC-1 (Yang et al. J Biol Chem 272:27700-6 (1997)) were treated for 4 hours with 0.9% ethanol and fractionated into nuclear extracts (Van Mater et al. (1998)).
To calibrate the system cells were incubated in the presence of ethanol for 4 hours and the amount of edited apoB mRNA determined.
The overall expression and subcellular localization of epitope tagged ACF isoforms is established by western blotting of nuclear and cytoplasmic extracts (prepared using NE-PER system; Pierce). These biochemical studies are complemented by immunofluorescence microscopy of paraformaldehyde fixed cells reacted with epitope tag or ACF isoform-specific antibodies. In pilot experiments varying levels of HA-tagged ACF43 and ACF45 were expressed by transfecting differing amounts of cDNA into McArdle or McAPOBEC cells (FIGS. 35A & C, western blots). […] ACF expression levels, subcellular localization and editing activity are determined from replicate experiments and the relative affects of overexpressing each isoform compared in the absence (negative control) or presence of ethanol and to the response seen in wild type cells (positive control).

[4] = system: AC; conditions: cited from earlier work
[5] = activation of cAMP dependent kinases

Compound: O=C(O)[C@@H]1[C@H](C(=O)O)[C@H]2CC[C@@H]1O2 [Endothall]
apoB mRNA editing, Mean ± SEM ([1]; 100 nM): 66 ± 2% | apoB mRNA editing, Mean ± SEM ([1]; 500 nM): 65 ± 2% | apoB mRNA editing, Mean ± SEM ([1]; 5 μM): 64 ± 3% | apoB mRNA editing, Mean ± SEM ([1]; 50 μM): 83 ± 2% | effect on apoB mRNA editing ([1]; 10-times the IC50 for PP1): stimulated editing to statistically significant levels

editing in metabolic state of rat hepatocytes (model, basal ~65%) [1]: ~95%
Compound: CCO [ethanol]
increase of phosphoACF in nuclear 27S editosomes ([2]; 0.45% ethanol, 4 hours): 3.5 fold | increase of phosphoserine in immunopurified ACF ([2]; 0.9% ethanol during the labeling period): 1.5 fold | increase in editing activity [3]: 52% | percent editing (from 21%) [3]: 32%

Compound: Glucagon
EC50 [4, 5]: 0.1 to 100 nM | EC50 ([4]; activation of cAMP dependent kinases, listed as glucagon): 50 nM | apoB mRNA editing, Mean ([1]; 1 nM): 62.2% | apoB mRNA editing, Mean ([1]; 10 nM): 59.5% | apoB mRNA editing, Mean ([1]; 100 nM): 58.3%

Compound: CC(C)NCC(O)c1ccc(O)c(O)c1 (centres unmarked) [Isoproterenol]
EC50 [4, 5]: 50000 nM | EC50 ([4]; range printed with mixed units): 1 to 100000 nM

effect on editing in hepatocytes [1]: did not affect editing
Compound: COc1cccc(-c2cc(=O)c3ccccc3o2)c1N [PD98059]

Compound: CC1(C)C(C=C(Cl)Cl)C1C(=O)OC(C#N)c1cccc(Oc2ccccc2)c1 (centres unmarked) [Cypermethrin]
apoB mRNA editing, Mean ± SEM ([1]; 50 pM): 69 ± 4% | apoB mRNA editing, Mean ± SEM ([1]; 5 nM): 66 ± 4% | effect on apoB mRNA editing ([1]; concentration not given): did not affect significantly apoB mRNA editing

Compound: C=C1[C@@H](O)[C@@H]2O[C@]3(CC[C@H](/C=C/[C@@H](C)[C@@H]4CC(C)=C[C@@]5(O[C@H](C[C@@](C)(O)C(=O)O)CC[C@H]5O)O4)O3)CC[C@H]2O[C@@H]1[C@@H](O)C[C@H](C)[C@H]1O[C@@]2(CCCCO2)CC[C@H]1C [Okadaic acid]
apoB mRNA editing, Mean ± SEM ([1]; 1 nM): 72 ± 4% | apoB mRNA editing, Mean ± SEM ([1]; 10 nM): 74 ± 4% | apoB mRNA editing, Mean ± SEM ([1]; 100 nM): 91 ± 2% | apoB mRNA editing (increased from 66%) ([1]; about 10 times the IC50 for PP1 (cantharidin 4.7 μM)): greater than 90% | effect on apoB mRNA editing ([1]; concentration not given): stimulated
